Reference: patent publication US20060205677A1 (XenoPort, Inc., priority 2005, published 2006)

How the values were obtained:
[1] = system: Calu-6 cells; assay: In vitro cytotoxicity (Alamar blue growth inhibition), Calu-6; assay type: cell-based, human; conditions: Calu-6, 48 h
Method: (§1) The effect of experimental compounds on cancer cell growth and viability was measured in a panel of human cancer cells grown in vitro. All cancer cell lines were obtained from the American […]. Cells were maintained in the following media: TUR, H69AR, Calu-6, ME180, and PC3 cells were grown in RPMI medium containing 4.5 g/L glucose, 10% FBS, 4 mM L-glutamine, and 1 mM sodium pyruvate); and HT29 cells were grown in DMEM with 4.5 g/L glucose, 10% FBS, and 6 mM L-glutamine. All cells were grown at 37° C. in 5% CO2 and passaged bi-weekly.
(§2) For cytoxicity studies, cells were seeded into 96-well clear-bottom microtiter plates at the following densities: TUR (7,500 cells/well), HT29 (5,000 cells/well), H69AR (10,000 cells/well), Calu-6 (15,000 cells/well), and ME180 (2,500 cells/well). Cells were maintained at 37° C. with 5% CO2 for 24 hours prior to addition of various experimental compounds. Each condition was measured in triplicate. For compounds dissolved in DMSO, the final DMSO concentration in each well and in the non-drug treated control cells was constant and below 1% in all studies. The number of viable cells was determined after 24, 48, and 72 hours using Alamar blue fluorescence. Briefly, Alamar blue (10 mM) was added to each well for 4 hours, and the number of viable cells estimated by measuring the fluorescence of reduced Alamar blue (530 nm excitation, 590 nm emission). To correct for background fluorescence, cells were treated with 100% DMSO to eliminate all viable cells. The effect of drug on cell growth was determined by calculating the fraction of live cells treated with drug compared to untreated cells: (F1drug treated−F1DMSO killed)/(F1untreated−F1DMSO killed).

[2] = system: H69AR cells; assay: In vitro cytotoxicity (Alamar blue growth inhibition), H69AR; assay type: cell-based, human; conditions: 48 h
Method: as §1, §2

[3] = system: HT29 cells; assay: In vitro cytotoxicity (Alamar blue growth inhibition), HT29; assay type: cell-based, human; conditions: HT29, 48 h
Method: as §1, §2

[4] = system: ME180 cells; assay: In vitro cytotoxicity (Alamar blue growth inhibition), ME180; assay type: cell-based, human; conditions: ME180, 48 h
Method: as §1, §2

[5] = system: PC3 cells; assay: In vitro cytotoxicity (Alamar blue growth inhibition), PC3; assay type: cell-based, human; conditions: PC3, 48 h
Method: as §1, §2

[6] = system: TUR cells; assay: In vitro cytotoxicity (Alamar blue growth inhibition), TUR; assay type: cell-based, human; conditions: 48 h
Method: as §1, §2

[7] = system: HT29 cells; assay: Effect of sugar transport inhibitor (phloridzen) on in vitro cytotoxicity; assay type: cell-based, human; conditions: for GI50: 48 hours
Method: as §1, §2

[8] = system: PC3 (Prostate) xenograft; assay: In vivo tumor growth inhibition, mouse xenograft, PC3; design: species or system nude athymic CD-1 mice; conditions: 80 mg/kg (2/week), IP
Method: (§3) Tumor xenograft studies were performed using nude athymic CD-1 mice (Charles River Laboratories). Human cancer cells (5×10^6 PC3, 5×10^6 HT29, 10^7 Calu-6, and 5×10^6 ME180) were implanted in the hind flank of nude mice. Tumor growth was measured using calipers and tumor volume calculated using the formula: (width^2×(length/2)). Tumor volume was measured 3 days per week. Animal weight was measured 3 days per week to assess compound toxicity.
(§4) Compounds were tested for in vivo tumor growth inhibition as follows. Animals bearing tumors 100-200 mg were sorted into groups (5-8 animals) with similar average tumor mass per group. Drug doses were administered by intraperitoneal (IP) injection (0.5 mL). Test compounds were dissolved in phosphate buffered saline (PBS) and concentration adjusted for animal weight. Actual drug concentrations in formulated doses were verified by quantitative nitrogen detection. Animals were dosed every 7 days for 21 days in most studies. In several studies, animals were dosed twice weekly (days 0, 4, 7, 10, 14, etc.). Tumor volume and animal weight were measured on days 0, 2, 4, 7, 9, 11, 14, 16, 18, 21, 23, 25, and 28. […] Tumor volume at the end of the study was calculated as a percentage of the tumor volume on day 0. […]

[9] = system: HT29 (Colon) xenograft; assay: In vivo tumor growth inhibition, mouse xenograft, HT29; design: species or system nude athymic CD-1 mice; conditions: IP
Method: as §3
(§5) Compounds were tested for in vivo tumor growth inhibition as follows. Animals bearing tumors 100-200 mg were sorted into groups (5-8 animals) with similar average tumor mass per group. Drug doses were administered by intraperitoneal (IP) injection (0.5 mL). Test compounds were dissolved in phosphate buffered saline (PBS) and concentration adjusted for animal weight. Actual drug concentrations in formulated doses were verified by quantitative nitrogen detection. Animals were dosed every 7 days for 21 days in most studies. In several studies, animals were dosed twice weekly (days 0, 4, 7, 10, 14, etc.). Tumor volume and animal weight were measured on days 0, 2, 4, 7, 9, 11, 14, 16, 18, 21, 23, 25, and 28. At the end of the study, animal blood was removed for analysis of liver and kidney function (BUN, creatine, AST and ALT; analytical measurements performed by Quality Clinical Labs). Tumor volume at the end of the study was calculated as a percentage of the tumor volume on day 0. The percent tumor growth inhibition was obtained from the ratio of the percentage tumor volume increase in drug treated animals to the percentage tumor volume increase in saline treated animals.

[10] = system: Calu-6 (Lung) xenograft; assay: In vivo tumor growth inhibition, mouse xenograft, Calu-6; design: species or system nude athymic CD-1 mice; conditions: IP
Method: as §3, §5

[11] = system: ME180 (Cervical) xenograft; assay: In vivo tumor growth inhibition, mouse xenograft, ME180; design: species or system nude athymic CD-1 mice; conditions: IP
Method: as §3, §5

[12] = system: several different tumor types; assay: In vivo tumor growth inhibition, overall statement; design: species or system nude athymic CD-1 mice; conditions: mouse xenografts, compared with cisplatin, oxaliplatin, carboplatin
Method: as §3, §4

[13] = Determination of maximum tolerated dose (MTD); assay type: in vivo, nude mice
Method: To determine the maximum tolerated doses for compound (54) relative to clinically used platinum anticancer agents, nude mice were injected with increasing drug doses (0.5 mL, intraperitoneally) on days 0, 7, and 14. […] The therapeutic index of a given drug is defined as the ratio of the maximum tolerated dose to the minimally effective dose.

For `O=C(CCCC1C(=O)[O][Pt]2([NH]C3CCCCC3[NH]2)[O]C1=O)NCC1OC(O)C(O)C(O)C1O` [(54), [1R,2R-Cyclohexanediamine-N,N′][{3-(α,β-D-Galactopyranos-6-ylamido)propyl}propanedioato(2-)-O,O′]Platinum (II)], the GI50 [1] was 185 µM, the GI50 [2] was 77 µM and the GI50 [3] was 238 µM. It also gave a GI50 [4] of 15 µM, a GI50 [5] of 85 µM and a GI50 [6] of 9 µM. It also gave a GI50 ([7]; HT29, 0 mM phloridzen, read-out: GI50 of Uptake in HT29 Cells, 0 mM Phoridzen) of 385 µM, a GI50 ([7]; HT29, 0.2 mM phloridzen, read-out: GI50 of Uptake in HT29 Cells, 0.2 mM Phoridzen) of 574 µM and a GI50 ([7]; HT29, 0.5 mM phloridzen, read-out: GI50 of Uptake in HT29 Cells, 0.5 mM Phoridzen) of 759 µM. The GI50 ([7]; HT29, 1.0 mM phloridzen, read-out: GI50 of Uptake in HT29 Cells, 1.0 mM Phoridzen) was greater than 1000 µM, the “Effect of increasing concentrations of phloridzen on cytotoxic effects” value ([7]; HT29, 48 hours, in words) was “block the cytotoxic effects” and the “Percent Tumor Growth Inhibition PC3 (Prostate)” value [8] was 82%. For the same compound, the “Percent Tumor Growth Inhibition HT29 (Colon)” value ([9]; 75 mg/kg (2/week)) was 74%, the “Percent Tumor Growth Inhibition HT29 (Colon)” value ([9]; 100 mg/kg) was 63% and the “Percent Tumor Growth Inhibition Calu-6 (Lung)” value ([10]; 50 mg/kg (2/week)) was 73%. For the same compound, the “Percent Tumor Growth Inhibition Calu-6 (Lung)” value ([10]; 100 mg/kg) was 42%, the “Percent Tumor Growth Inhibition Calu-6 (Lung)” value ([10]; 500 mg/kg) was 81% and the “Percent Tumor Growth Inhibition ME180 (Cervical)” value ([11]; 50 mg/kg (2/week)) was 24%. For the same compound, the “Percent Tumor Growth Inhibition ME180 (Cervical)” value ([11]; 75 mg/kg (2/week)) was 24%, the “Percent Tumor Growth Inhibition ME180 (Cervical)” value ([11]; 100 mg/kg) was 18% and the “Percent Tumor Growth Inhibition ME180 (Cervical)” value ([11]; 500 mg/kg) was 68%. For the same compound, the “Inhibition of tumor growth in vivo, in words” value [12] was “effective in inhibiting growth of several different tumor types in vivo”, the “Therapeutic index relative to cisplatin, carboplatin, oxaliplatin, in words” value ([13]; in words) was “dramatically improved therapeutic index” and the “Therapeutic Index MTD/Min Eff” value ([13]; ratio of maximum tolerated dose to minimally effective dose) was 12.7.
